≈ marks a conversion by molar mass, not a printed value. Read-outs that look alike come from different tables or passages of the source.
Assays:
[1] = Solubility in different solvents (aliquot addition until dissolution); assay type: physicochemical
Protocol: Solubility in different solvents: Solubility in different organic solvents was measured using the following protocol. Approximately 25 mg portions of genistein and crystalline genistein sodium dihydrate salt were placed in 48 different vials, separately. 5 volume aliquots of each solvent were added exclusively to a vial. Between each addition, the mixture was checked for dissolution and if no dissolution was apparent, the procedure was continued until dissolution was observed or when 50 volumes had been added.

[2] = SuperSol 1000 kinetic and equilibrium solubility assay
[3] = cited from earlier work
[4] = rat, mean ± SD, n = 3
Protocol: Preparation of Dosing Solutions for In-Vivo Study: Genistein and Crystalline genistein sodium salt dihydrate were stored at room temperature under desiccant and protected from light. The dosing solutions were prepared fresh from powders on the day of dosing. The dosing solution for intravenous administration (IV) was prepared at 1 mg/mL (free acid) in 50:50 DMSO:saline. The dosing solutions for intraduodenal administration (ID) were prepared at 2 mg/mL (genistein free acid) in a 0.2% sodium carboxymethyl cellulose (Na CMC) solution in water.
Animal Dosing: The pharmacokinetics of genistein was evaluated in fasted male Sprague-Dawley rats. Each animal was fitted with a jugular vein cannula (JVC) for blood sampling. Animals intended for intravenous dosing were fitted with an additional JVC for dose administration. Animals intended for intraduodenal dosing were fitted with an intraduodenal cannula (IDC) for dose administration. Surgically modified animals were housed one per cage. All animals were supplied with a commercial rodent diet (LabDiet, Certified Rodent Diet #5002) ad libitum prior to study initiation. […] Water was supplied ad libitum.
Intraduodenal dosing solutions were administered as a single bolus dose at time zero on the day of dosing. Intravenous doses were administered as a slow IV injection over approximately 1 minute. Blood sampling times began at the end of the infusion. Blood samples were collected.
Each blood sample was collected from the rats via a jugular vein cannula and placed into chilled polypropylene tubes containing sodium heparin as an anticoagulant. Samples were centrifuged at a temperature of 4° C. and at a speed of 13,000 rpm for 5 minutes. Samples were maintained chilled throughout processing. Each plasma sample was split into two aliquots. The first aliquot contained 50 μL of plasma. All remaining plasma volume was used for the second aliquot. Samples were then placed on dry ice, and stored in a freezer set to maintain −60° C. to −80° C. The total concentration of genistein in plasma samples were analyzed by LC-MS/MS after an overnight incubation with glucuronidase/arylsulfatase enzyme mixture. Pharmacokinetic parameters were calculated using the WinNonlin software.
Analysis of Plasma Samples: An LC-MS/MS analytical method for the determination of genistein in rat plasma was developed. Prior to sample analysis, a standard curve was analyzed to determine the specificity, range, and linearity of the method. Total genistein in plasma samples was determined by pre-treating all samples with β-glucuronidase/arylsulfatase enzymes and incubating prior to analysis. Incubation with the enzyme mix deconjugated any glucuronide or sulfate metabolites of genistein back to the parent form.
Acceptance Criteria for LC-MS/MS Analysis: One standard curve was dispersed throughout each analytical run. At least ⅝ of the standards must be accurate to within ±20%, except at the LLOQ where ±25% is acceptable, in order for the run to pass.
Pharmacokinetic Analysis: Individual plasma concentrations versus time data for genistein were subjected to non-compartmental analysis using the pharmacokinetic program WinNonlin v. […] Plasma concentrations below the limit of quantitation (10 ng/mL) were assigned a value of zero for PK analysis only.

[5] = Aqueous solubility (slurry shaken ca. 24 hours, filtered, HPLC); assay type: physicochemical
Protocol: Aqueous Solubility: Aqueous solubility was measured using the following protocol. Slurries of genistein and of crystalline genistein sodium dihydrate salt were made up in aqueous media in which pH was set at 4.5, 6.7, and 7.5, each slurry was shaken at ambient temperature for ca. 24 hours and then filtered using a 0.2 μm filter into a clean vial. The saturated solutions were then diluted and analyzed for API (genistein) content using N-Ac-DL-Methionine on a Chirobiotic T HPLC column and UV detector set at λmax=270 nm. The mobile phase was acetonitrile/water run in isocratic mode over a 30 minute period. The results are presented in Table 3, (BDL=below detection limits).

O=c1c(-c2ccc(O)cc2)coc2cc(O)cc(O)c12 [Genistein, 4′,5,7-trihydroxyisoflavone-5,7-dihydroxy-3-(4-hydroxyphenyl)-4H-1-benzopyran-4-one]
solubility ([1]; aqueous with cosolvent or surfactant or cyclodextrin, thermodynamic from solid, Acetone/Water (50:50)): < 10.1 mg/mL | solubility ([1]; organic solvent or mixture, thermodynamic from solid, 1,4-dioxane): < 10.3 mg/mL | solubility ([1]; organic solvent or mixture, thermodynamic from solid, 1-Butanol (BuOH)): < 10.5 mg/mL | solubility ([1]; organic solvent or mixture, thermodynamic from solid, 2-Propanol (IPA)): < 10.5 mg/mL | solubility ([1]; organic solvent or mixture, thermodynamic from solid, Acetone): ~17 mg/mL (≈ 62.9 mM) | solubility ([1]; organic solvent or mixture, thermodynamic from solid, Acetone/IPA (50:50)): 20.1 mg/mL (≈ 74.4 mM) | solubility ([1]; organic solvent or mixture, thermodynamic from solid, Acetonitrile (MeCN)): < 10.1 mg/mL | solubility ([1]; organic solvent or mixture, thermodynamic from solid, Cyclohexane): < 10.7 mg/mL | solubility ([1]; organic solvent or mixture, thermodynamic from solid, Dichloromethane (DCM)): < 10.3 mg/mL | solubility ([1]; organic solvent or mixture, thermodynamic from solid, Diisopropylether (DIPE)): < 10.6 mg/mL | solubility ([1]; organic solvent or mixture, thermodynamic from solid, Dimethyl sulfoxide (DMSO)): ~100 mg/mL (≈ 370 mM) | solubility ([1]; organic solvent or mixture, thermodynamic from solid, Ethanol (EtOH)): < 10.8 mg/mL | solubility ([1]; organic solvent or mixture, thermodynamic from solid, Heptane): < 10.5 mg/mL | solubility ([1]; organic solvent or mixture, thermodynamic from solid, Methanol (MeOH)): < 10.6 mg/mL | solubility ([1]; organic solvent or mixture, thermodynamic from solid, Methyl acetate (MeOAc)): < 10.3 mg/mL | solubility ([1]; organic solvent or mixture, thermodynamic from solid, Methyl isobutyl ketone (MIBK)): < 10.1 mg/mL | solubility ([1]; organic solvent or mixture, thermodynamic from solid, Methylethyl ketone (MEK)): < 10.8 mg/mL | solubility ([1]; organic solvent or mixture, thermodynamic from solid, N-Methyl-2-pyrrolidinone (NMP)): ~68 mg/mL (≈ 252 mM) | solubility ([1]; organic solvent or mixture, thermodynamic from solid, N-N-dimethylformamide (DMF)): ~100 mg/mL (≈ 370 mM) | solubility ([1]; organic solvent or mixture, thermodynamic from solid, Octanol): < 10.5 mg/mL | solubility ([1]; organic solvent or mixture, thermodynamic from solid, Tetrahydrofuran (THF)): 26.3 mg/mL (≈ 97.3 mM) | solubility ([1]; organic solvent or mixture, thermodynamic from solid, Toluene): < 10.1 mg/mL | solubility ([1]; organic solvent or mixture, thermodynamic from solid, Toluene/Dioxane (50:50)): < 10.1 mg/mL | solubility ([1]; organic solvent or mixture, thermodynamic from solid, tert-Butylmethyl ether (TBME)): < 10.5 mg/mL | C[Eq] (late kinetic solubility) ([2]; EtOH 100%): 13.79 mg×1^−1 | C[MSS] (early kinetic solubility) ([2]; EtOH 100%): 5.81 mg×1^−1 | ISI (Intrinsic Solubility Index) ([2]; EtOH 100%): 2.11 | ISI / late solubility profile, rating in words ([2]; EtOH 100%): good | KSR (Kinetic Solubility ratio) ([2]; EtOH 100%): 0.42 | KSR, rating in words ([2]; EtOH 100%): acceptable | MSS (Maximum Solubility Speed) ([2]; EtOH 100%): 23.81 mg×1^−1×min^−1 | MSS, rating in words ([2]; EtOH 100%): good | ΔC [C, − CMSS] ([2]; EtOH 100%): 7.98 mg×1^−1 | C[Eq] (late kinetic solubility) ([2]; EtOH/dH2O 50/50 (vol/vol)): 12.87 mg×1^−1 | C[MSS] (early kinetic solubility) ([2]; EtOH/dH2O 50/50 (vol/vol)): 7.43 mg×1^−1 | ISI (Intrinsic Solubility Index) ([2]; EtOH/dH2O 50/50 (vol/vol)): 1.55 | ISI / late solubility profile, rating in words ([2]; EtOH/dH2O 50/50 (vol/vol)): good | KSR (Kinetic Solubility ratio) ([2]; EtOH/dH2O 50/50 (vol/vol)): 0.58 | KSR, rating in words ([2]; EtOH/dH2O 50/50 (vol/vol)): acceptable | MSS (Maximum Solubility Speed) ([2]; EtOH/dH2O 50/50 (vol/vol)): 12.18 mg×1^−1×min^−1 | MSS, rating in words ([2]; EtOH/dH2O 50/50 (vol/vol)): good | ΔC [CEq − CMSS] ([2]; EtOH/dH2O 50/50 (vol/vol)): 5.44 mg×1^−1 | C[Eq] (late kinetic solubility) ([2]; EtOH/dH2O 75/25 (vol/vol)): 14.03 mg×1^−1 | C[MSS] (early kinetic solubility) ([2]; EtOH/dH2O 75/25 (vol/vol)): 8.52 mg×1^−1 | ISI (Intrinsic Solubility Index) ([2]; EtOH/dH2O 75/25 (vol/vol)): 1.49 | ISI / late solubility profile, rating in words ([2]; EtOH/dH2O 75/25 (vol/vol)): good | KSR (Kinetic Solubility ratio) ([2]; EtOH/dH2O 75/25 (vol/vol)): 0.61 | KSR, rating in words ([2]; EtOH/dH2O 75/25 (vol/vol)): good | MSS (Maximum Solubility Speed) ([2]; EtOH/dH2O 75/25 (vol/vol)): 19.67 mg×1^−1×min^−1 | MSS, rating in words ([2]; EtOH/dH2O 75/25 (vol/vol)): good | ΔC [CEq − CMSS] ([2]; EtOH/dH2O 75/25 (vol/vol)): 5.51 mg×1^−1 | Solubility in water (in words) ([3]; background statement): practically insoluble | Aqueous solubility (reported) ([3]; reported range): 0.01 to 0.04 µM | AUClast ([4]; intraduodenal, 20 mg/kg): 414 ± 111 kg·ng·h/mL/mg | AUClast ([4]; intravenous, 1 mg/kg): 2533 ± 638 kg·ng·h/mL/mg | AUC∞ ([4]; intravenous, 1 mg/kg): 2584 ± 639 kg·ng·h/mL/mg | Aqueous solubility ([5]; Water/slurry pH 4.5, ambient temperature): BDL | Aqueous solubility ([5]; Water/slurry pH 6.7, ambient temperature): BDL | Aqueous solubility ([5]; Water/slurry pH 7.5, ambient temperature): BDL
